Laboratory results: US8987195B2 (priority 2012, dated 2015)
Where two headings read alike, the source gives them in different places.

Columns and labels:
[1] = biological target: HCV NS3/4A protease genotype 1b (Hepatitis C virus genotype 1b, UniProt P26663); test: HCV NS3/4A protease time-resolved fluorescence (TRF) assay, Ki against genotype 1b; type: biochemical; settings: IC50 [gt-1b], NS3/4A protease TRF assay, genotype 1b enzyme 0.2 nM
Method in brief: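 Ki was converted from fitted IC50 using IC50=Ki(1+[S]/KM) and 25 nM substrate. Protease (genotype 1b 0.2 nM, A156T 0.4 nM, 3a 0.025 nM) and compound were pre-mixed 30 min in pH 7.5 HEPES/NaCl/glycerol/DTT buffer. Cleavage then proceeded 2.5 h at room temperature, detected by time-resolved europium fluorescence (340/615 nm).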

HCV genotype 1b replicon = test: HCV replicon assay, genotype 1b replicon EC50; type: cell-based, Hepatitis C virus; settings: Hepatitis C virus, HCV replicon, genotype 1b, read-out: EC50 [gt-1b]
Method in brief: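 Stable neomycin-selected genotype 1b replicon cells, some carrying luciferase:Neo^r fusion, plated without G418 with a compound dilution series and incubated 24-48 h. Read-out was RNA (^32P-probe protection or TaqMan, normalized to cyclophilin A) or luciferase activity. EC50 from four-parameter fit as percent of DMSO control.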

SMILES	IC50 ([1]; K+ salt) [nM]	EC50 (HCV genotype 1b replicon; K+ salt) [nM]	IC50 [1] [nM]	EC50 (HCV genotype 1b replicon) [nM]
COc1ccc2nc(C(F)F)c3c(c2c1)CC[C@]1(C[C@H]2C(=O)N[C@]4(C(=O)NS(=O)(=O)C5(C)CC5)C[C@H]4/C=C\CCCCC[C@H](NC(=O)O[C@@H](C)C(C)C)C(=O)N2C1)O3 [Example 442, (2S)-3-methylbutan-2-yl [(2R,6S,12Z,13aS,14aR,16aS)-5′-(difluoromethyl)-9′-methoxy-14a-{[(1-methylcyclopropyl)sulfonyl]carbamoyl}-5,16-dioxo-1,1′,2′,5,6,7,8,9,10,11,13a,14,14a,15,16,16a-hexadecahydrospiro[cyclopropa[e]pyrrolo[1,2-a][1,4]diazacyclopentadecine-2,3′-pyrano[2,3-c]quinolin]-6-yl]carbamate]	0.024	1.68	–	–
COc1ccc2nc(C(F)F)c3c(c2c1)CC[C@]1(C[C@H]2C(=O)N[C@]4(C(=O)NS(=O)(=O)C5(C)CC5)C[C@H]4/C=C\CCCCC[C@H](NC(=O)O[C@H](C)C(C)C)C(=O)N2C1)O3 [Example 443, (2R)-3-methylbutan-2-yl [(2R,6S,12Z,13aS,14aR,16aS)-5′-(difluoromethyl)-9′-methoxy-14a-{[(1-methylcyclopropyl)sulfonyl]carbamoyl}-5,16-dioxo-1,1′,2′,5,6,7,8,9,10,11,13a,14,14a,15,16,16a-hexadecahydrospiro[cyclopropa[e]pyrrolo[1,2-a][1,4]diazacyclopentadecine-2,3′-pyrano[2,3-c]quinolin]-6-yl]carbamate]	0.025	1.79	–	–
CC[C@H](C)OC(=O)N[C@H]1CCCCC/C=C\[C@@H]2C[C@@]2(C(=O)NS(=O)(=O)C2(C)CC2)NC(=O)[C@@H]2C[C@]3(CCc4c(c(C(F)F)nc5ccc(OC)cc45)O3)CN2C1=O [Example 444, (2S)-butan-2-yl [(2R,6S,12Z,13aS,14aR,16aS)-5′-(difluoromethyl)-9′-methoxy-14a-{[(1-methylcyclopropyl)sulfonyl]carbamoyl}-5,16-dioxo-1,1′,2′,5,6,7,8,9,10,11,13a,14,14a,15,16,16a-hexadecahydrospiro[cyclopropa[e]pyrrolo[1,2-a][1,4]diazacyclopentadecine-2,3′-pyrano[2,3-c]quinolin]-6-yl]carbamate]	0.014	1.31	–	–
CC[C@@H](C)OC(=O)N[C@H]1CCCCC/C=C\[C@@H]2C[C@@]2(C(=O)NS(=O)(=O)C2(C)CC2)NC(=O)[C@@H]2C[C@]3(CCc4c(c(C(F)F)nc5ccc(OC)cc45)O3)CN2C1=O [Example 445, (2R)-butan-2-yl [(2R,6S,12Z,13aS,14aR,16aS)-5′-(difluoromethyl)-9′-methoxy-14a-{[(1-methylcyclopropyl)sulfonyl]carbamoyl}-5,16-dioxo-1,1′,2′,5,6,7,8,9,10,11,13a,14,14a,15,16,16a-hexadecahydrospiro[cyclopropa[e]pyrrolo[1,2-a][1,4]diazacyclopentadecine-2,3′-pyrano[2,3-c]quinolin]-6-yl]carbamate]	0.014	1.14	–	–
COc1ccc2nc(C(F)F)c3c(c2c1)CC[C@]1(C[C@H]2C(=O)N[C@]4(C(=O)NS(=O)(=O)C5(C)CC5)C[C@H]4/C=C\CCCCC[C@H](NC(=O)OC(C)C)C(=O)N2C1)O3 [Example 446, propan-2-yl [(2R,6S,12Z,13aS,14aR,16aS)-5′-(difluoromethyl)-9′-methoxy-14a-{[(1-methylcyclopropyl)sulfonyl]carbamoyl}-5,16-dioxo-1,1′,2′,5,6,7,8,9,10,11,13a,14,14a,15,16,16a-hexadecahydrospiro[cyclopropa[e]pyrrolo[1,2-a][1,4]diazacyclopentadecine-2,3′-pyrano[2,3-c]quinolin]-6-yl]carbamate]	–	–	0.013	1.17
COc1ccc2nc(C(F)(F)F)c3c(c2c1)CC[C@]1(C[C@H]2C(=O)N[C@]4(C(=O)NS(=O)(=O)C5(C)CC5)C[C@H]4/C=C\CCCCC[C@H](NC(=O)OC(C)C)C(=O)N2C1)O3 [Example 447, propan-2-yl [(2R,6S,12Z,13aS,14aR,16aS)-9′-methoxy-14a-{[(1-methylcyclopropyl)sulfonyl]carbamoyl}-5,16-dioxo-5′-(trifluoromethyl)-1,1′,2′,5,6,7,8,9,10,11,13a,14,14a,15,16,16a-hexadecahydrospiro[cyclopropa[e]pyrrolo[1,2-a][1,4]diazacyclopentadecine-2,3′-pyrano[2,3-c]quinolin]-6-yl]carbamate]	–	–	0.019	1.37
CCCOC(=O)N[C@H]1CCCCC/C=C\[C@@H]2C[C@@]2(C(=O)NS(=O)(=O)C2(C)CC2)NC(=O)[C@@H]2C[C@]3(CCc4c(c(C(F)(F)F)nc5ccc(OC)cc45)O3)CN2C1=O [Example 448, propyl [(2R,6S,12Z,13aS,14aR,16aS)-9′-methoxy-14a-{[(1-methylcyclopropyl)sulfonyl]carbamoyl}-5,16-dioxo-5′-(trifluoromethyl)-1,1′,2′,5,6,7,8,9,10,11,13a,14,14a,15,16,16a-hexadecahydrospiro[cyclopropa[e]pyrrolo[1,2-a][1,4]diazacyclopentadecine-2,3′-pyrano[2,3-c]quinolin]-6-yl]carbamate]	–	–	0.006	2.69
COc1ccc2nc(C(F)(F)F)c3c(c2c1)CC[C@]1(C[C@H]2C(=O)N[C@]4(C(=O)NS(=O)(=O)C5(C)CC5)C[C@H]4/C=C\CCCCC[C@H](NC(=O)OC4(C(C)C)CC4)C(=O)N2C1)O3 [Example 449, 1-(propan-2-yl)cyclopropyl [(2R,6S,12Z,13aS,14aR,16aS)-9′-methoxy-14a-{[(1-methylcyclopropyl)sulfonyl]carbamoyl}-5,16-dioxo-5′-(trifluoromethyl)-1,1′,2′,5,6,7,8,9,10,11,13a,14,14a,15,16,16a-hexadecahydrospiro[cyclopropa[e]pyrrolo[1,2-a][1,4]diazacyclopentadecine-2,3′-pyrano[2,3-c]quinolin]-6-yl]carbamate]	–	–	0.007	1.39
COc1ccc2nc(C(F)(F)F)c3c(c2c1)CC[C@]1(C[C@H]2C(=O)N[C@]4(C(=O)NS(=O)(=O)C5(C)CC5)C[C@H]4/C=C\CCCCC[C@H](NC(=O)OC4CCC4)C(=O)N2C1)O3 [Example 450, cyclobutyl [(2R,6S,12Z,13aS,14aR,16aS)-9′-methoxy-14a-{[(1-methylcyclopropyl)sulfonyl]carbamoyl}-5,16-dioxo-5′-(trifluoromethyl)-1,1′,2′,5,6,7,8,9,10,11,13a,14,14a,15,16,16a-hexadecahydrospiro[cyclopropa[e]pyrrolo[1,2-a][1,4]diazacyclopentadecine-2,3′-pyrano[2,3-c]quinolin]-6-yl]carbamate]	–	–	0.019	1.69
CCC1(OC(=O)N[C@H]2CCCCC/C=C\[C@@H]3C[C@@]3(C(=O)NS(=O)(=O)C3(C)CC3)NC(=O)[C@@H]3C[C@]4(CCc5c(c(C(F)(F)F)nc6ccc(OC)cc56)O4)CN3C2=O)CC1 [Example 452, 1-ethylcyclopropyl [(2R,6S,12Z,13aS,14aR,16aS)-9′-methoxy-14a-{[(1-methylcyclopropyl)sulfonyl]carbamoyl}-5,16-dioxo-5′-(trifluoromethyl)-1,1′,2′,5,6,7,8,9,10,11,13a,14,14a,15,16,16a-hexadecahydrospiro[cyclopropa[e]pyrrolo[1,2-a][1,4]diazacyclopentadecine-2,3′-pyrano[2,3-c]quinolin]-6-yl]carbamate]	–	–	0.03	2.4
